In patent publication US4451465A, “Anti-obesity agents” (John Wyeth & Brother Ltd., priority 1981, dated 1984):

How the values were obtained:
[1] = system: noradrenaline (NA) uptake in rat brown adipose tissue (BAT); experiment: inhibition of noradrenaline uptake in BAT; format: cell-based, rat (adult male Sprague-Dawley); conditions: for IC50: mean ± S.E. mean of 6 experiments, rat BAT
Method: In one procedure for testing for potential thermogenic activity the compounds are tested for their ability to inhibit noradrenaline uptake in rat brown adipose tissue (BAT). […] In another procedure for testing for thermogenic activity the compounds are investigated for their effect on the activity of sodium potassium activated, magnesium dependent adenosinetriphosphatase (Na^+, K^+ -ATPase) in rat BAT fractions.
In the above mentioned procedures adult male Sprague-Dawley rats were used. Homogenates of BAT were prepared by homogenising interscapular BAT. Microsomal material was separated by centrifugation of the BAT homogenate. […] Adenosinetriphosphate activities were measured by monitoring the release of inorganic phosphate from ATP. Na^+, K^+ -ATPase was calculated as the difference between total and sodium ATPase.

[2] = system: noradrenaline (NA) uptake into brain slices; experiment: inhibition of noradrenaline uptake in brain slices; format: cell-based, rat (adult male Sprague-Dawley); conditions: mean ± S.E. mean of 6 experiments; rat brain slices
Method: (§1) In one procedure for testing for potential thermogenic activity the compounds are tested for their ability to inhibit noradrenaline uptake in rat brown adipose tissue (BAT). Compounds that have a specific thermogenic effect without having undesirable central effects should inhibit BAT noradrenaline (NA) uptake at lower concentrations than those required to inhibit corresponding NA uptake in the brain. In another procedure for testing for thermogenic activity the compounds are investigated for their effect on the activity of sodium potassium activated, magnesium dependent adenosinetriphosphatase (Na^+, K^+ -ATPase) in rat BAT fractions.
(§2) In the above mentioned procedures adult male Sprague-Dawley rats were used. Homogenates of BAT were prepared by homogenising interscapular BAT. Microsomal material was separated by centrifugation of the BAT homogenate. Measurement of NA uptake into BAT and brain slices was carried out using radiolabelled noradrenaline (based upon the procedure of Sugden, Br. J. Pharmac., 1974,51, 467-469). Adenosinetriphosphate activities were measured by monitoring the release of inorganic phosphate from ATP. Na^+, K^+ -ATPase was calculated as the difference between total and sodium ATPase.

[3] = molecular target: BAT homogenate Na^+, K^+ -ATPase; experiment: stimulation of Na^+, K^+ -ATPase in BAT homogenate; format: biochemical, rat (adult male Sprague-Dawley); conditions: for IC50: homogenate, read-out: IC50 for stimulation (to 50% maximum) of BAT Na^+,K-ATP-ase, homogenate
Method: as §1, §2

[4] = molecular target: BAT microsomal Na^+, K^+ -ATPase; experiment: stimulation of Na^+, K^+ -ATPase in BAT microsomal fraction; format: biochemical, rat (adult male Sprague-Dawley)
Method: as §1, §2

[5] = system: male rats; experiment: chronic (28 day) administration to male rats: body weight and food intake; format: in vivo, rat; conditions: 28 days
Excerpt: The anti-obesity activity of (±)-2,3,4,10-tetrahydro-3,3-dimethyl-10-phenylpyrimido[1,2-a]indol-10-ol has been confirmed by chronic (28 day) administration to male rats. The animals were fed on a standard pelleted diet and the active agent was introduced into the water supply. Body weight, food and water intake and behaviour were monitored over the next four weeks.

[6] = system: brown adipose tissue; experiment: thermogenic activity (pharmacological testing); set-up: species or system rat; conditions: compared with corresponding (+)-enantiomers
Method: as §1, §2

[7] = system: rats; experiment: resting metabolic rate (resting oxygen consumption) in rats; format: in vivo, rat
Excerpt: (§3) It is also known that there is a good correlation between BAT homogenate Na^+, K^+ -ATPase activity and the resting metabolic rate (see, for example, Rothwell, Stock and Wyllie, Biochem. Pharmacol., 1981, 30, 1709-1712) and those compounds, such as the agents of the present invention that activate BAT Na^+ K^+ -ATPase activity are indicated as useful as thermogenic agents and can be used in the treatment of obesity.

[8] = system: rats; experiment: signs of CNS arousal in rats; format: in vivo, rat; conditions: dosages as high as 30 mg/kg p.o.
Excerpt: as §3

SMILES	IC50 [1] [nM]	IC50 [2] [nM]	IC50 [3] [nM]	IC50 for stimulation (to 50% maximum) of BAT Na^+,K-ATP-ase, microsomal fraction [4]	weight gain compared to controls ([5]; 3.5 mg/kg/day in water supply)	weight gain compared to controls ([5]; 6.5 mg/kg/day in water supply)	body weight ([5]; 10.8 mg/kg/day in water supply)	food intake ([5]; 3.5, 6.5 and 10.8 mg/kg/day in water supply)	activity as thermogenic agents, (-) versus (+)-enantiomers [6]	potency in inhibiting NA uptake into BAT versus brain slices ([1]; BAT compared with brain slices)	stimulation of homogenate Na^+, K^+ -ATPase ([3]; BAT homogenate)	direct stimulation of BAT microsomal Na^+, K^+ -ATPase ([4]; BAT microsomal)	resting metabolic rate (resting oxygen consumption) [7]	signs of CNS arousal [8]
CC1(C)CN=C2N(C1)c1ccccc1C2(O)c1ccccc1 (racemic) [(±), (±)-2,3,4,10-tetrahydro-3,3-dimethyl-10-phenylpyrimido[1,2-a]indol-10-ol]	28	3400	43	none at 10^-4	reduced weight gain	reduced weight gain	weight loss	no significant effect on food intake						
CC1(C)CN=C2N(C1)c1ccccc1C2(O)c1ccccc1 (single isomer, unassigned; (-)) [(-), (-)-2,3,4,10-Tetrahydro-3,3-dimethyl-10-phenylpyrimido[1,2-a]indol-10-ol]	18	2400	32	none at 10^-4					more active, as thermogenic agents, than the corresponding (+)-enantiomers					
CC1(C)CN=C2N(C1)c1ccccc1C2(O)c1ccccc1 (stereo not drawn) [compound of the invention, 2,3,4,10-tetrahydro-3,3-dimethyl-10-phenylpyrimido[1,2-a]indol-10-ol]										considerably more potent in inhibiting NA uptake into BAT than into brain slices	significant stimulation	did not directly stimulate	increases the resting metabolic rate	did not produce signs of CNS arousal
